Results on six compounds are retold here after patent US20260297080A1, “BICYCLIC COMPOUNDS AS CDK INHIBITORS” (BeOne Medicines I GmbH, priority 2022, published 2026).

One experiment has as its target CDK1/Cyclin B1 (Homo sapiens, UniProt P06493). Description: CDK1/Cyclin B1 Biochemical Assay (TR-FRET), 1 mM ATP. The note with it: 0.15 μM Rb (Ser780)-biotin substrate, pH7.0, 60 min preincubation, 90 min reaction, room temperature. The method, boiled down: (§1)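 TR-FRET kinase reaction with 1 mM ATP and 0.15 μM Rb (Ser780)-biotin substrate in pH 7.0 HEPES buffer; enzyme preincubated 60 min with compound (0-10 μM), then reacted 90 min at room temperature. Phospho-Rb detected by Eu-anti-pRb/streptavidin-XL665 665/620 nm ratio; IC50 from four-parameter logistic fit.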
A general note: Time-resolved FRET reads energy transfer from a long-lived donor to a nearby acceptor.

Another experiment addresses CDK2/Cyclin E1 (Homo sapiens, UniProt P24941). The experiment can be described thus: CDK2/Cyclin E1 Biochemical Assay (TR-FRET), 1 mM ATP. The note with it: 0.15 μM Rb (Ser780)-biotin substrate, pH7.0, 60 min preincubation, 90 min reaction, room temperature. In short, it runs like this:
as §1

Sequence of CDK1/Cyclin B1 (P06493 whole entry): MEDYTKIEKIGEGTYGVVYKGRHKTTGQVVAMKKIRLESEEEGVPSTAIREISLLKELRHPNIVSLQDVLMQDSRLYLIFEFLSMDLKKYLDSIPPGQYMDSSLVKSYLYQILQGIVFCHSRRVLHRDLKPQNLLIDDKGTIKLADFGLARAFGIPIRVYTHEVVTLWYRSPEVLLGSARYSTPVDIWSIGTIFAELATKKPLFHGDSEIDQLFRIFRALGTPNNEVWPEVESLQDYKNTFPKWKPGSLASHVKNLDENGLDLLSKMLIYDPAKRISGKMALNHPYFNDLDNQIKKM
Sequence of CDK1/Cyclin B1 (P14635 whole entry partner): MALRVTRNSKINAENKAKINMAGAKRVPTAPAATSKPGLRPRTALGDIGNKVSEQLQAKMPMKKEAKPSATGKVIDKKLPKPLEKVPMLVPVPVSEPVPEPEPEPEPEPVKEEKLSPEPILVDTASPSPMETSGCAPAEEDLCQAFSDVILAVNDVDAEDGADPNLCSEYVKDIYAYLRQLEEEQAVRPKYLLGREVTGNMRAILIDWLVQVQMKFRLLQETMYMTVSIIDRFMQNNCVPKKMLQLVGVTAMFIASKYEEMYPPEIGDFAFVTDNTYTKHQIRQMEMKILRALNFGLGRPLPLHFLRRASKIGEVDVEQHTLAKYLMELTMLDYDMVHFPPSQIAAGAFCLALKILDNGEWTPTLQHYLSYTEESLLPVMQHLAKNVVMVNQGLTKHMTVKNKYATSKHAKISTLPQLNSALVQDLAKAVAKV

In the case of `CC(C)(C)NC(=O)O[C@H]1CC[C@@H](c2cc(Nc3ccc4c(c3F)CS(=O)(=O)N4)n[nH]2)C1` (relative stereo) [Example 423, cis-3-(3-((4-fluoro-2,2-dioxido-1,3-dihydrobenzo[c]isothiazol-5-yl)amino)-1H-pyrazol-5-yl)cyclopentyl tert-butylcarbamate], the IC50 (commonly the concentration that inhibits the measured activity by half) came out at 252 nM on CDK1/Cyclin B1 and 2.7 nM against CDK2/Cyclin E1.
In the case of `CC(C)NC(=O)O[C@H]1CC[C@@H](c2cc(Nc3ccc4c(c3F)NS(=O)(=O)N4C)n[nH]2)C1` (relative stereo) [Example 467, cis-3-(3-((4-fluoro-1-methyl-2,2-dioxido-1,3-dihydrobenzo[c][1,2,5]thiadiazol-5-yl)amino)-1H-pyrazol-5-yl)cyclopentyl isopropylcarbamate], the IC50 against CDK1/Cyclin B1 is above 10000 nM; against CDK2/Cyclin E1, 530 nM.
The like results for `CN(C(=O)O[C@H]1CC[C@@H](c2cc(Nc3ccc4c(c3F)CS(=O)(=O)N4)n[nH]2)C1)C1CCOC1` (relative stereo) [Example 441, cis-3-(3-((4-fluoro-2,2-dioxido-1,3-dihydrobenzo[c]isothiazol-5-yl)amino)-1H-pyrazol-5-yl)cyclopentyl methyl(tetrahydrofuran-3-yl)carbamate] were, in that order, 5060 nM and 47 nM.
The like results for `CC(C)(CO)NC(=O)O[C@H]1CC[C@@H](c2cc(Nc3ccc4c(c3F)CN(C3CC3)S4(=O)=O)n[nH]2)C1` (single isomer, unassigned) [Example 359b, cis-3-(3-((2-cyclopropyl-4-fluoro-1,1-dioxido-2,3-dihydrobenzo[d]isothiazol-5-yl)amino)-1H-pyrazol-5-yl)cyclopentyl(1-hydroxy-2-methylpropan-2-yl)carbamate] were, in that order, 2890 nM and 7.1 nM.
On the same counts, the results for `CC(C)NC(=O)O[C@@H]1CC[C@H](c2cc(Nc3ccc4c(c3F)CCS(=O)(=O)N4)n[nH]2)C1` (single isomer, unassigned) [Example 430a] are 1770 nM and 3.6 nM.
As to `CC1(NC(=O)O[C@H]2CC[C@@H](c3cc(Nc4ccc5c(c4F)CS(=O)(=O)N5)n[nH]3)C2)CCC1` (single isomer, unassigned) [Example 427b], the IC50 on CDK1/Cyclin B1 worked out at 68 nM; against CDK2/Cyclin E1, 0.8 nM.
